Non-standard residues stand in square brackets, D forms with d. Residues, ends and D or L forms follow the SMILES beside them. ξ: configuration not given here. *: point of attachment. Acetyl(1,8-naphthalimido) = O=C1c2cccc3cccc(c23)C(=O)N1CC(=O)*; X2 = O=C1c2cccc3c(N4CCCCC4)ccc(c23)C(=O)N1CC(=O)*; ξY = NC(Cc1ccc(O)cc1)C(=O)O; ξE = NC(CCC(=O)O)C(=O)O
Columns and labels:
[1] = Fluorescence in co-solvents of water and dimethyl sulfoxide (aggregation-induced emission); type: physicochemical; conditions: for fluorescence intensity with increase of the volume ratio of water: aggregation-induced emission; for color of observed fluorescence / emission wavelength: water/dimethyl sulfoxide co-solvent
Text: Continuing in FIG. 4, which illustrates a fluorescence intensity and an emission wavelength of the water-soluble peptide fluorescence material of formula (III-1) in co-solvents having different proportions of water and dimethyl sulfoxide. In Experimental Example 401, 402, 403, 404, 405, 406, 407, 408, 409, 410 and 411, water respectively has 0, 10, 20, 30, 40, 50, 60, 70, 80, 90 and 100% of a total volume of the co-solvent. […] As such, no significant fluorescence marker is shown, so it is difficult to observe apparent fluorescence visually. […] Given the above, the fluorescence intensity of the water-soluble peptide fluorescence material of formula (III-1) is increased corresponding to the increase of the volume ratio of water, which is also referred as aggregation-induced emission (AIE). In addition, the water-soluble peptide fluorescence material of formula (III-1) has the emission wavelength of about 400 nm, so the observed fluorescence has a color of blue violet.
Continuing in FIG. 9, which illustrates a fluorescence intensity and an emission wavelength of the water-soluble peptide fluorescence material of formula (III-23) in co-solvents having different proportions of water and dimethyl sulfoxide. In Experimental Examples 901, 902, 903, 904, 905, 906, 907, 908, 909 and 910, water respectively has 0, 10, 20, 30, 40, 50, 60, 70, 80 and 90% of a total volume of the co-solvent. […] Given the above, the fluorescence intensity of the water-soluble peptide fluorescence material of formula (III-23) is increased corresponding to the increase of the volume ratio of water and has a phenomenon of aggregation-induced emission in water. In addition, the water-soluble peptide fluorescence material of formula (III-23) has the emission wavelength of about 550 nm, so the observed fluorescence has a color of green.
FIG. 12 illustrates a fluorescence intensity and an emission wavelength of the water-soluble peptide fluorescence material of formula (III-28) in co-solvents having different proportions of water and dimethyl sulfoxide. In Experimental Example 1201, 1202, 1203, 1204, 1205, 1206, 1207, 1208, 1209, 1210 and 1211, water respectively has 0, 10, 20, 30, 40, 50, 60, 70, 80, 90 and 99% of a total volume of the co-solvent. […] As such, no significant fluorescence marker is shown, so it is difficult to observe apparent fluorescence visually. […] Given the above, the fluorescence intensity of the water-soluble peptide fluorescence material of formula (III-28) is increased corresponding to the increase of the volume ratio of water and has a phenomenon of aggregation-induced emission in water. In addition, the water-soluble peptide fluorescence material of formula (III-28) has the emission wavelength of about 400 nm, so the observed fluorescence has a color of violet. FIG. 13 depicts a ratio of the fluorescence intensity between Experimental Examples 1202 to 1211 and Experimental Example 1201, at the emission wavelength of 400 nm.
FIG. 15 illustrates a fluorescence intensity and an emission wavelength of the water-soluble peptide fluorescence material of formula (III-30) in co-solvents having different proportions of water and dimethyl sulfoxide. In Experimental Example 1501, 1502, 1503, 1504, 1505, 1506, 1507, 1508, 1509, 1510 and 1511, water respectively has 0, 10, 20, 30, 40, 50, 60, 70, 80, 90 and 100% of a total volume of the co-solvent. […] As such, no significant fluorescence marker is shown, so it is difficult to observe apparent fluorescence visually. […] Accordingly, the fluorescence intensity of the water-soluble peptide fluorescence material of formula (III-30) is increased corresponding to the increase of the volume ratio of water and has a phenomenon of aggregation-induced emission in water. In addition, the water-soluble peptide fluorescence material of formula (III-30) has the emission wavelength of about 400 to 425 nm, so the observed fluorescence has a color of blue violet. […]

[2] = Fluorescence intensity and emission wavelength at different pH values; type: physicochemical; conditions: for color of fluorescence / emission peak: pH 5; for pH value of the highest fluorescence intensity: pH 10 to 3 tested; for fluorescence intensity: pH 10 to 6
Text: In Experimental Examples 210, 220, 230, 240, 250, 260, 270 and 280, the above water-soluble peptide fluorescence material is respectively placed in environments having a pH value of 10, 9, 8, 7, 6, 5, 4 and 3 for testing. In Experimental Examples 210 to 230, the water-soluble peptide fluorescence material is respectively placed in environments having the pH value of 10, 9 and 8.
Continuing in FIG. 5, which illustrates a fluorescence intensity and an emission wavelength of the water-soluble peptide fluorescence material of formula (III-10) at different pH values. In Experimental Examples 510, 520, 530, 540, 550, 560, 570 and 580, the water-soluble peptide fluorescence material of formula (III-10) is respectively placed in environments having a pH value of 10, 9, 8, 7, 6, 5, 4 and 3 for testing. In Experimental Examples 510 to 560, the water-soluble peptide fluorescence material is placed in environments having the pH value of 10 to 5, and two emission peaks are shown in FIG. 5. […] Then, the pH value is further decrease to 4 (Experimental Example 570) and 3 (Experimental Example 580), and only the emission peak at about 400 nm is remained, so the observed fluorescence has a color of purple in Experimental Examples 570 and 580. Therefore, the water-soluble peptide fluorescence material of formula (III-10) is able to detect and mark locations of acidic cells by change of the color.
Continuing in FIG. 7, which illustrates a fluorescence intensity and an emission wavelength of the water-soluble peptide fluorescence material of formula (III-21) at different pH values. In Experimental Examples 710, 720, 730, 740, 750, 760, 770 and 780, the water-soluble peptide fluorescence material of formula (III-21) is respectively placed in environments having a pH value of 10, 9, 8, 7, 6, 5, 4 and 3 for testing. In Experimental Examples 710 to 750, the water-soluble peptide fluorescence material is placed in environments having the pH value of 10 to 6. […] However, the fluorescence intensity of Experimental Examples 780 is decreased when the pH value is decreased from 4 to 3.
Continuing in FIG. 8, which illustrates a fluorescence intensity and an emission wavelength of the water-soluble peptide fluorescence material of formula (III-22) at different pH values. In Experimental Examples 810, 820, 830, 840, 850, 860, 870 and 880, the water-soluble peptide fluorescence material of formula (III-22) is respectively placed in environments having a pH value of 10, 9, 8, 7, 6, 5, 4 and 3 for testing. In Experimental Examples 810 to 850, the water-soluble peptide fluorescence material is respectively placed in environments having the pH value of 10 to 6. […] In addition, the fluorescence intensity of Experimental Example 860 (pH=5) is 90 times of the fluorescence intensity of Experimental Example 810 […], which represents that the water-soluble peptide fluorescence material has obvious light-emitting interval and easily to identify and detect positions of the acidic cells.
FIG. 10 illustrates a fluorescence intensity and an emission wavelength of the water-soluble peptide fluorescence material of formula (III-23) at different pH values. In Experimental Examples 1010, 1020, 1030, 1040, 1050, 1060, 1070 and 1080, the water-soluble peptide fluorescence material of formula (III-23) is respectively placed in environments having a pH value of 10, 9, 8, 7, 6, 5, 4 and 3 for testing. In Experimental Examples 1010 to 1050, the water-soluble peptide fluorescence material is respectively placed in environments having the pH value of 10 to 6. […] The water-soluble peptide fluorescence material not only provides obvious marker, but also achieves the same effect of the fluorescence at a low concentration, and thereby reduces the costs.
FIG. 11 illustrates a fluorescence intensity and an emission wavelength of the water-soluble peptide fluorescence material of formula (III-27) at different pH values. […]

O=C(CN1C(=O)c2cccc3cccc(c23)C1=O)NC(Cc1ccccc1)C(=O)O (centres unmarked) [III-1]
fluorescence intensity with increase of the volume ratio of water [1]: increased
fluorescence intensity ([1]; water 0 to 70% of co-solvent volume): low fluorescence intensity
fluorescence intensity ([1]; water 80%): 50 fluorescent units
fluorescence intensity ([1]; water 90%): 100 fluorescent units
fluorescence intensity ([1]; water 100%): about 650 fluorescent units
color of observed fluorescence [1]: blue violet
emission wavelength [1]: about 400 nm

O=C(CN1C(=O)c2cccc3cccc(c23)C1=O)NCC(=O)NC(Cc1ccccc1)C(=O)O (centres unmarked) [III-10]
color of observed fluorescence ([2]; pH 4 and 3): purple
emission peak (only one remained) ([2]; pH 4 and 3): about 400 nm
color of observed fluorescence ([2]; pH 10 to 5): mixed light of green light and purple light
emission peak (first) ([2]; pH 10 to 5): about 400 nm
emission peak (other) ([2]; pH 10 to 5): about 500 nm

O=C(O)CCC(NC(=O)[C@H](Cc1ccccc1)NC(=O)CN1C(=O)c2cccc3c(N4CCCCC4)ccc(c23)C1=O)C(=O)O (some centres unmarked) [III-21]
color of fluorescence [2]: green
emission peak [2]: about 550 nm
pH value of the highest fluorescence intensity [2]: 4
fluorescence intensity [2]: low fluorescence intensities
change of fluorescence intensity ([2]; pH decreased from 4 to 3): decreased
change of fluorescence intensity ([2]; pH decreased from 5 to 4): further increased
change of fluorescence intensity ([2]; pH decreased to 5): significantly increased

O=C(O)C[C@H](NC(=O)[C@H](CC(=O)O)NC(=O)[C@H](Cc1ccccc1)NC(=O)CN1C(=O)c2cccc3c(N4CCCCC4)ccc(c23)C1=O)C(=O)O [III-22]
ratio of fluorescence intensity Experimental Example 860 (pH=5) to Experimental Example 810 (pH=1) [2]: 90 times
color of fluorescence [2]: yellow
emission peak [2]: about 575 nm
pH value of the highest fluorescence intensity [2]: 5
fluorescence intensity [2]: low fluorescence intensities
change of fluorescence intensity ([2]; pH decreased from 4 to 3): slightly increased
change of fluorescence intensity ([2]; pH decreased from 5 to 4): decreased
change of fluorescence intensity ([2]; pH decreased to 5): significantly increased

O=C(O)C[C@H](NC(=O)[C@H](CC(=O)O)NC(=O)[C@H](Cc1ccccc1)NC(=O)CN1C(=O)c2cccc3c(N4CCCCC4)ccc(c23)C1=O)C(=O)O [III-23]
fluorescence intensity with increase of the volume ratio of water [1]: increased
fluorescence intensity ([1]; water 90% (Experimental Example 910), water 0 to 90% tested): highest fluorescence intensity
color of observed fluorescence [1]: green
emission wavelength [1]: about 550 nm
color of fluorescence [2]: green
emission peak [2]: about 525 nm
fluorescence intensity [2]: low fluorescence intensities
change of fluorescence intensity ([2]; pH decreased to 4 and 3): slightly increased
change of fluorescence intensity ([2]; pH decreased to 5): significantly increased

O=C(O)CCC(NC(=O)C(CCC(=O)O)NC(=O)C(CCC(=O)O)NC(=O)[C@H](Cc1ccccc1)NC(=O)CN1C(=O)c2cccc3c(N4CCCCC4)ccc(c23)C1=O)C(=O)O (some centres unmarked) [III-27] (X2-F[ξE][ξE][ξE]-OH)
color of fluorescence [2]: green
emission peak [2]: about 525 nm
fluorescence intensity [2]: low fluorescence intensities
change of fluorescence intensity ([2]; pH decreased to 4 and 3): significantly increased
change of fluorescence intensity ([2]; pH decreased to 5): significantly increased

C[C@H](NC(=O)[C@H](CCC(=O)O)NC(=O)CNC(=O)[C@H](CC(=O)O)NC(=O)[C@H](Cc1ccccc1)NC(=O)CN1C(=O)c2cccc3cccc(c23)C1=O)C(=O)O [III-28] ({Acetyl(1,8-naphthalimido)}-FDGEA-OH)
fluorescence intensity with increase of the volume ratio of water [1]: increased
ratio of fluorescence intensity Experimental Example 1211 (99% water) to 1201 (0% water) ([1]; emission wavelength of 400 nm): 225 times
fluorescence intensity ([1]; water 0 to 80%): low fluorescence intensity
fluorescence intensity ([1]; water 90%): 150 fluorescent units
fluorescence intensity ([1]; water 99%): about 110 fluorescent units
color of observed fluorescence [1]: violet
emission wavelength [1]: about 400 nm
color of fluorescence [2]: purple
emission peak [2]: about 400 nm
fluorescence intensity [2]: low fluorescence intensities
change of fluorescence intensity ([2]; pH decreased to 4 and 3): significantly increased
change of fluorescence intensity ([2]; pH decreased to 5): significantly increased

O=C(CNC(=O)CNC(=O)CN1C(=O)c2cccc3cccc(c23)C1=O)NCC(=O)NCC(=O)NCC(=O)NC(Cc1ccc(O)cc1)C(=O)O (centres unmarked) [III-30] ({Acetyl(1,8-naphthalimido)}-GGGGG[ξY]-OH)
fluorescence intensity with increase of the volume ratio of water [1]: increased
ratio of fluorescence intensity Experimental Example 1511 to 1501 (0% water) ([1]; emission wavelength of 410 nm): 100 times
fluorescence intensity ([1]; water 0 to 80%): lower than 100 fluorescent units
fluorescence intensity ([1]; water 90%): 200 fluorescent units
fluorescence intensity ([1]; water 99%): about 700 fluorescent units
color of observed fluorescence [1]: blue violet

Source: patent US10222381B2, “Water-soluble peptide fluorescence material” (NATIONAL CHIAO TUNG UNIVERSITY, priority 2015, dated 2019)
